From ChEMBL document CHEMBL1126382, “Synthesis and anti-HIV activity of pyrrolo-[1,2-d]-(1,4)-benzodiazepin-6-ones” (Bioorg Med Chem Lett, 1992)
pIC50: −log10 of the molar value. Values after ≈ are worked out from the molar mass of the structure shown.

What was measured:
MT2 [1] = experiment: Inhibition concentration required to protect 90% of cells(MT-2) from HIV induced death was determined; assay type: functional; details: Homo sapiens
MT2 [2] = experiment: Inhibition concentration required to protect 50% of cells(MT-2) from HIV induced death was determined; assay type: functional; details: Homo sapiens, read-out: TC50 (the source's name)
[3] = test system: Human immunodeficiency virus 1; experiment: (§1) Inhibitory concentration against HIV-1 was determined; assay type: functional, organism-based
MT2 [4] = experiment: Inhibition concentration required to protect 90% of cells(MT-2) from HIV-1(3b) induced death was determined; assay type: functional; details: Homo sapiens
[5] = test system: Human immunodeficiency virus 1; experiment: as §1; assay type: functional
MT2 [6] = experiment: Inhibition concentration required to protect 90% of cells(MT-2) from HIV-1(rf) induced death was determined; assay type: functional; details: Homo sapiens
MT2 [7] = experiment: Inhibition concentration required to protect 50% of cells(MT-2) from HIV-1(3b) induced death was determined; assay type: functional; details: Homo sapiens, read-out: TC50 (the source's name)
MT2 [8] = experiment: Inhibition concentration required to protect 50% of cells(MT-2) from HIV-1(rod) induced death was determined; assay type: functional, cell-based; details: Homo sapiens

Row | SMILES | IC90 (MT2 [1]) | CC50 (MT2 [2]) | further results
1 | O=Cc1ccc2n1CC(=O)Nc1ccccc1-2 | > 50 µg/mL | > 50 µg/mL | –
2 | Cc1ccnc2c1NC(=O)c1cccnc1N2C1CC1 [NEVIRAPINE] | – | – | pIC50 [3]: 7.40
3 | O=C1Cn2cccc2-c2ccccc2N1 | > 50 µg/mL | > 50 µg/mL | –
4 | O=Cc1ccc2n1[C@@H](Cc1ccccc1)C(=O)Nc1ccccc1-2 | > 2.5 µg/mL | 2.5 µg/mL (≈ 7.9 µM) | –
5 | O=C1c2ccccc2C(=O)N1CCCCN1C(=O)[C@H](Cc2ccc(O)cc2)n2cccc2-c2ccccc21 | > 23 µg/mL | 23 µg/mL (≈ 45.5 µM) | –
6 | O=C1[C@H](Cc2ccc(O)cc2)n2cccc2-c2ccccc2N1CCc1ccc(O)cc1 | 0.8 µg/mL (≈ 1.88 µM) | 10 µg/mL (≈ 23.6 µM) | –
7 | O=C(C[C@H]1C(=O)Nc2ccccc2-c2cccn21)OCc1ccccc1 | 0.29 µg/mL (≈ 0.837 µM) | 10 µg/mL (≈ 28.9 µM) | IC90 (MT2 [4]): > 0.3 µg/mL; IC90 [5]: 800 nM; IC90 (MT2 [6]): 0.29 µg/mL (≈ 0.837 µM); CC50 (MT2 [7]): > 10 µg/mL; IC50 (MT2 [8]): 3 µg/mL (≈ 8.66 µM)
8 | O=C1Nc2ccccc2-c2cccn2[C@H]1Cc1ccccc1 | > 21 µg/mL | 21 µg/mL (≈ 72.8 µM) | –
9 | CC(C)=CCN1Cc2cccc3[nH]c(=S)n(c23)C[C@@H]1C | – | – | pIC50 [3]: 7.55
10 | O=C1Nc2ccccc2-c2cccn2[C@H]1Cc1ccc(O)cc1 | > 23 µg/mL | 23 µg/mL (≈ 75.6 µM) | –
11 | O=C1c2ccccc2C(=O)N1CCCCCN1C(=O)[C@H](Cc2ccc(O)cc2)n2cccc2-c2ccccc21 | 2.6 µg/mL (≈ 5 µM) | > 50 µg/mL | –
12 | CN1C(=O)[C@H](Cc2ccc(O)cc2)n2cccc2-c2ccccc21 | > 5.2 µg/mL | 5.2 µg/mL (≈ 16.3 µM) | –
13 | CC(C)=CCN1Cc2cc(Cl)cc3nc(S)n(c23)CC1C (stereo not drawn) [TIBO] | – | – | IC90 (MT2 [4]): 1.5 µg/mL (≈ 4.66 µM); IC90 (MT2 [6]): 0.15 µg/mL (≈ 0.466 µM); CC50 (MT2 [7]): 55 µg/mL (≈ 171 µM); IC50 (MT2 [8]): > 50 µg/mL
14 | O=C(O)C[C@H]1C(=O)Nc2ccccc2-c2cccn21 | > 50 µg/mL | > 50 µg/mL | –
